# In patent publication US11311538B2, “Compositions and methods for targeting cancers” (YALE UNIVERSITY, priority 2018, dated 2022):
# Assays:
# [1] = system: shSDHB-expressing HEK293FT tumor xenografts; assay: Tumor growth delay assay, shSDHB HEK293FT xenografts; format: in vivo, mouse
# Excerpt: In vivo efficacy studies: HEK293FT xenografts. Female athymic nu/nu mice (Hsd:Athymic Nude-Foxnlnu, Envigo) were used for all in vivo xenograft studies. Mice were quarantined for at least 1 week before experimental manipulation. Tumors were formed using shRNA-expressing versions of the tumorigenic human embryonic kidney cell-derived line, HEK293FT. HEK293FT is a subline of HEK293 cells that has been transformed by expression of SV40 Large T-antigen. […], or shCTRL (non-targeted control) expressing HEK293FT cells were implanted subcutaneously (5×10^6 cells in 0.1 cc PBS) in the right flank of nude mice. Two efficacy studies were conducted. In one, mice were randomized into treatment and non-treated groups (10 mice/group) at day 3, with treatment initiation 4 days post implant. In a second independent in vivo efficacy study, mice were injected as above with 10 mice per group, and treatment was started only once the tumor volumes reached […]. For both studies, mice were visually observed daily and tumors were measured three times per week by calipers to determine tumor volume using the formula: Volume=L×W×W×0.532. Mice were fed with a grain based rodent diet containing Doxycycline at 200 mg/kg (Bioserv, Catalog #S3888). BMN-673 was solubilized in DMSO and diluted with PBS containing 10% dimethylacetamide (Sigma-Aldrich) and 6% Solutol (Sigma). BMN-673 (0.5 mg/kg, 0.2 cc), or vehicle (0.2 cc) was administered by oral gavage once daily for the duration of the experiment. Mean (geometric) tumor volume (mm^3) was plotted over time to monitor tumor growth. P-values were determined by ANOVA with repeated measures. In vivo efficacy studies: UOK 262 xenografts. Female athymic nu/nu mice (Hsd:Athymic Nude-Foxnlnu, Envigo) were used for all in vivo xenograft studies. Mice were quarantined for at least 1 week before experimental manipulation. UOK 262 cells were implanted subcutaneously using 5×10^6 cells in 0.1 cc PBS mixed with 0.1 cc of Corning Matrigel Matrix (Cat. No. 354234) per animal. Mice were randomized at day 3 day into two groups (n=10/group). […]
# poly-ADP-ribose (PAR) = assay: Poly-ADP-Ribose ELISA in xenograft tumors; format: in vivo, mouse; settings: 24 h post single dose (FIG. 4K)
# Procedure: Tumors developed with mice on a rodent diet including doxycycline just as in the in vivo efficacy studies. Once tumors were at 80 mm^3 mice were gavaged with BMN-673 at 1 or 10 mg/kg or vehicle. Tumors were collected 24 hours later for and frozen at −80° C. The concentrations of BMN-673 in tumor samples were determined using liquid chromatography with tandem mass spectrometry (LC-MS/MS). In brief, an aliquot (30 μL) tumor homogenate was protein precipitated with volumes of methanol, and 5 μL of supernatant was injected into the LC-MS/MS system. LC-MS/MS analyses were performed on a Waters LC-MS/MS system consisting a Waters AQUITY UPLC system coupled with a TQ-XS triple quadrupole mass spectrometer (Milford, Mass., USA). […] BMN673 was monitored using the positive electrospray ionization mode at the most sensitive and specific mass transition, m/z 381.0>228.8. The linear calibration curve was established at BMN673 concentration range of 5-5000 nM in mouse serum. The precision and accuracy of quality control samples were within generally acceptable criteria for bioanalytical methods. Poly-ADP-Ribose ELISA. Poly-ADP-Ribose ELISA was performed per manufacturer's protocol using the PARP in vivo Pharmacodynamic Assay II Kit (Trevigen). 2 μg of protein input was used per replicate and luminescence reading were converted to pg PAR/μg protein using a standard curve. Statistics and Reproducibility. […]
# [2] = system: shCTRL-expressing HEK293FT tumor xenografts; assay: Tumor growth delay assay, shCTRL HEK293FT xenografts; format: in vivo, mouse
# Excerpt: In vivo efficacy studies: HEK293FT xenografts. Female athymic nu/nu mice (Hsd:Athymic Nude-Foxnlnu, Envigo) were used for all in vivo xenograft studies. Mice were quarantined for at least 1 week before experimental manipulation. Tumors were formed using shRNA-expressing versions of the tumorigenic human embryonic kidney cell-derived line, HEK293FT. HEK293FT is a subline of HEK293 cells that has been transformed by expression of SV40 Large T-antigen. […], or shCTRL (non-targeted control) expressing HEK293FT cells were implanted subcutaneously (5×10^6 cells in 0.1 cc PBS) in the right flank of nude mice. Two efficacy studies were conducted. In one, mice were randomized into treatment and non-treated groups (10 mice/group) at day 3, with treatment initiation 4 days post implant. In a second independent in vivo efficacy study, mice were injected as above with 10 mice per group, and treatment was started only once the tumor volumes reached […]. For both studies, mice were visually observed daily and tumors were measured three times per week by calipers to determine tumor volume using the formula: Volume=L×W×W×0.532. Mice were fed with a grain based rodent diet containing Doxycycline at 200 mg/kg (Bioserv, Catalog #S3888). […] P-values were determined by ANOVA with repeated measures. […]
# HEK293FT and YUNK1 cells = assay: Clonogenic survival assay, PARP inhibitors, knockdown or metabolite-treated cells; format: cell-based, human; settings: knockdown of SDHB and FH or exogenous dimethyl-fumarate or succinate (FIGS. 4A-4B, 8E-8I)
# UOK 262 = assay: Clonogenic survival assay in cell lines of renal origin; format: cell-based, human; settings: FIG. 4C (BMN-673), FIG. 8J (mitomycin C)
compound,measurement,setting,value
"Cn1ncnc1[C@H]1c2n[nH]c(=O)c3cc(F)cc(c23)N[C@@H]1c1ccc(F)cc1 [BMN-673, BMN-673 (Talazoparib)]","tumor growth vs vehicle, SDH-deficient tumors","[1]; treatment after tumors reached 95-150 mm^3, 0.5 mg/kg oral gavage once daily (FIG. 4G)",inhibited the growth
same,"tumor growth vs vehicle, shSDHB tumors","[1]; treatment beginning four days after implantation, 0.5 mg/kg oral gavage once daily (FIG. 4D)",robust suppression of tumor growth
same,growth of SDHB-deficient tumors,"[1]; two separate sets of in vivo efficacy studies, 0.5 mg/kg oral gavage once daily",significantly inhibited the growth
same,"PAR levels by ELISA, SDHB knockdown vs shCTRL tumors",poly-ADP-ribose (PAR),reduced to the same extent
same,"tumor growth vs vehicle, shCTRL tumors","[2]; treatment after tumors reached 95-150 mm^3, 0.5 mg/kg oral gavage once daily (FIG. 4I)",no growth inhibition
same,"tumor growth vs vehicle, shCTRL tumors","[2]; treatment beginning four days after implantation, 0.5 mg/kg oral gavage once daily (FIG. 4F)",no effect
same,"sensitivity to the PARP inhibitor, clonogenic survival",HEK293FT and YUNK1 cells,dramatic sensitivity
same,"sensitivity of UOK 262 relative to FH-proficient cell lines of renal origin, clonogenic survival",UOK 262,markedly more sensitive
